Laboratory results from paper PMC3297001, “Four Eremophilane Sesquiterpenes from the Mangrove Endophytic Fungus Xylaria sp. BL321” (2012).

Target: α-glucosidase
Assay: enzyme assay with PNPG substrate, absorbance at […] nm; activation ([…]) at […], inhibition at higher concentration
Format: biochemical

Structure (SMILES): C=C(C=O)[C@@H]1C[C@@]2(C)C(=CC1=O)[C@H](OC(=O)/C=C/C=C/C(C)CC(C)CC)CC[C@@H]2C(=O)O (stereo partly shown) [compound 4, 07H239-A]
- IC50: 6.54 µM
